The target of one assay is T1, human α4β7 (Homo sapiens, UniProt P13612+P26010).
T1 construct: expressed in transfected cells
T1 sequence (P13612 34-1032): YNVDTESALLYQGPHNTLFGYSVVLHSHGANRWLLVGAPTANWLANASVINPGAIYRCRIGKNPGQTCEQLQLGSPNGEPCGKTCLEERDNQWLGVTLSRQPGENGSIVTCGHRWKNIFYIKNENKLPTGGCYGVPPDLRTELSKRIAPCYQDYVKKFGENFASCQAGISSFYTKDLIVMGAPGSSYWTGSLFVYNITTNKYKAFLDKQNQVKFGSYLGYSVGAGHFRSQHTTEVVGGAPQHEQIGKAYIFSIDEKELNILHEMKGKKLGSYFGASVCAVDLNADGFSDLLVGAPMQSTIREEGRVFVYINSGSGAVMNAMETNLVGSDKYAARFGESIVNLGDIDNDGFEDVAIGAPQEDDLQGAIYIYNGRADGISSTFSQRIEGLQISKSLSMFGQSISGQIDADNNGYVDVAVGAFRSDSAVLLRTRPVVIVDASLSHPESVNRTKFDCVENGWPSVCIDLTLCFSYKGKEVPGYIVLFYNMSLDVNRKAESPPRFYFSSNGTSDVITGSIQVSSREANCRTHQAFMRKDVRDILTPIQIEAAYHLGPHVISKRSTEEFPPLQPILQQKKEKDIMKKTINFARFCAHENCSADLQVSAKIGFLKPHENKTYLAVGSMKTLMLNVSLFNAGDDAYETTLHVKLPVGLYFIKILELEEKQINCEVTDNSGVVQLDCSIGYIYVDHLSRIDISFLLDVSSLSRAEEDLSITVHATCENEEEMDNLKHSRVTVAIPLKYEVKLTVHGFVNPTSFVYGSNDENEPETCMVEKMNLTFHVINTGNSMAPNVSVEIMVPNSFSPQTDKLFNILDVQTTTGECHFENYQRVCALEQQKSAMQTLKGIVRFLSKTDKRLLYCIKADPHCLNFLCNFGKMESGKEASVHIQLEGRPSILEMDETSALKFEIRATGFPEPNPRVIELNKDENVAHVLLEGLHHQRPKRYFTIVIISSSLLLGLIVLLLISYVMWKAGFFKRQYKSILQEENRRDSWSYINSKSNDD
T1 sequence (P26010 20-798): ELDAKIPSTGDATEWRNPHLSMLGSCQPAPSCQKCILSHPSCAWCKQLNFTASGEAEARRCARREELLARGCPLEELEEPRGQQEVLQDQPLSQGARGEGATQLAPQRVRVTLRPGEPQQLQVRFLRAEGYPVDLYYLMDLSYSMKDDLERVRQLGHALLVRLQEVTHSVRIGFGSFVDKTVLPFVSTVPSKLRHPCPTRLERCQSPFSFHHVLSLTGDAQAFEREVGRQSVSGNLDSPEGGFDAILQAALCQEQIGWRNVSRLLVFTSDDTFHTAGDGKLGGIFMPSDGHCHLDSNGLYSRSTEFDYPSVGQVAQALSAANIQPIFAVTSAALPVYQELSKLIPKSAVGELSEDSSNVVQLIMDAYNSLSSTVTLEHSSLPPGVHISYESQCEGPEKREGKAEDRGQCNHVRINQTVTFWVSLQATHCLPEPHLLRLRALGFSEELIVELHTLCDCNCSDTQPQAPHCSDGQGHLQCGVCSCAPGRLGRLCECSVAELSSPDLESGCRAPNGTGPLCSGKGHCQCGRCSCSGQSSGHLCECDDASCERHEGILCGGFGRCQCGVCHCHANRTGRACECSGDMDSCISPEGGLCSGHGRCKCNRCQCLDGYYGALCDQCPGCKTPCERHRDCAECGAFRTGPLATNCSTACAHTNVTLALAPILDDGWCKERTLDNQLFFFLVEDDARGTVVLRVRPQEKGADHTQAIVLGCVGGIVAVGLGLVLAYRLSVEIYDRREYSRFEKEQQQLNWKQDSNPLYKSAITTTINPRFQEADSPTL
Description: α4β7-K562 Cell Adhesion Assay (α4β7 Mediated Adhesion/VCAM-1). It counts as cell-based. As for the experimental part: (§1) α4β7-K562 Cell Adhesion Assay (α4β7 Mediated Adhesion/VCAM-1) Immulon 96 well plates (Dynex) were coated with 100 μL recombinant hVCAM-1 at 4.0 μg/mL in 0.05 M NaCO3 buffer pH 9.0 overnight at 4° C. (R&D Systems). Plates were washed 3 times in PBS with 1% BSA and blocked for 1 h @room temperature in this buffer. PBS was removed and compounds to be tested (50 μL) were added at 2× concentration. A stable cell line of K562 cells expressing human α4β7, (50 μL at 2×10^6/mL) labeled with 5 μM Calcein AM (Molecular Probes) for 1 h at 37° C., were added to each well and allowed to adhere for 1 h at room temperature. Plates were washed 3× in PBS+1% BSA and cells were lysed for 15 minutes in 100 μL of 1 M Tris pH 8.0 with 1% SDS. The plate was read at 485 nm excitation and 530 nm emission.

Assay [1] addresses T2, α4β1 (Homo sapiens, UniProt P05556+P13612). In words: Ramos Cell Adhesion Assay (α4β1 Mediated Adhesion/VCAM-1). It counts as cell-based. Set-up: Ramos Cell Adhesion Assay (α4β1 Mediated Adhesion/VCAM-1); endogenous in cells; host or cells: Ramos cells. As for the experimental part:
as §1, with “Ramos” for “α4β7-K562”, “(α4β1” for “(α4β7”, “@ room” for “@room”, “Ramos cells,” for “A stable cell line of K562 cells expressing human α4β7,”

Assay [2] concerns the target T2, α4β1. As to conditions: background, literature; cited from earlier work.
Assay [3] relates to oxazolone-induced contact hypersensitivity. As to conditions: mouse, 6 mg/kg, sc; cited from earlier work.
The subject of assay [4] is heterotopic heart allograft. As to conditions: hyperlipidemic rabbit; cited from earlier work.
[5] abbreviates: K562 cells expressing human α4β7, adhesion to recombinant hVCAM-1, read-out: α4β7 IC50.
Setting [6] is: Ramos cells, adhesion to recombinant hVCAM-1, read-out: α4β1 IC50.

pIC50: −log10 of the molar value. Where two headings read alike, the source gives them in different places.

T2 sequence (P05556 21-798, one chain of several): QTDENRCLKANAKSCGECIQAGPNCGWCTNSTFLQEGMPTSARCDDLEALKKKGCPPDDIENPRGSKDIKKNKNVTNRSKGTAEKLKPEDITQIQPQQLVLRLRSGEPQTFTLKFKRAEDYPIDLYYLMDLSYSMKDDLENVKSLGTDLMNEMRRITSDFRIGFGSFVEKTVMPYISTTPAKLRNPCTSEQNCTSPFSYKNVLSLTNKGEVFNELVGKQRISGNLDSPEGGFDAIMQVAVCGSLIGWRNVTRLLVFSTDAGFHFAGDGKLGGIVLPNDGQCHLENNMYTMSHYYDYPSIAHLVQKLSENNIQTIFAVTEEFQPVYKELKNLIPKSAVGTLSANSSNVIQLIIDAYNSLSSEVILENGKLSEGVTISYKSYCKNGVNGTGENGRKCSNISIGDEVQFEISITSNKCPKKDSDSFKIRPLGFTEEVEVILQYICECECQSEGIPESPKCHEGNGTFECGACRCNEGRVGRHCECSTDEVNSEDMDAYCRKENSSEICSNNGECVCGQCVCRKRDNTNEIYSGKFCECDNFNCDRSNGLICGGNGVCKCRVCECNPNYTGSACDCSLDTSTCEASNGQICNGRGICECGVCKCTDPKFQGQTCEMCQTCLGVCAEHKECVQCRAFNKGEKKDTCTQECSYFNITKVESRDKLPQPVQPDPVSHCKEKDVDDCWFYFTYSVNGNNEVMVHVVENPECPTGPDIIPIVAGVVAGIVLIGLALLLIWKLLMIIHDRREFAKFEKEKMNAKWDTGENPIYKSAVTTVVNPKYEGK

Broadly, the pIC50 is the IC50 on a negative log10 scale, so that one unit is a factor of ten. As for `CC(C)(O)CCCC(=O)N1C2CCC(CC2)C1C(=O)NC(Cc1ccc(NC(=O)c2c(Cl)cncc2Cl)cc1)C(=O)O` (centres unmarked) [Cpd 11], the pIC50 on human α4β7 (setting [5]) was 7.33; on α4β1 [1] (setting [6]), 7.85.
For the compound `O=C(Nc1ccc(CC(NC(=O)C2C3CCC(CC3)N2C(=O)CS(=O)(=O)c2ccccc2)C(=O)O)cc1)c1c(Cl)cncc1Cl` (centres unmarked) [Cpd 6], the results for the pIC50 on human α4β7 (setting [5]) and on α4β1 [1] (setting [6]) were 7.57 and 7.82, respectively.
For the compound `O=C(Nc1ccc(CC(NC(=O)C2C3CCC(CC3)N2C(=O)CSc2ccccn2)C(=O)O)cc1)c1c(Cl)cncc1Cl` (centres unmarked) [Cpd 1], the figures for the pIC50 at human α4β7 (setting [5]) and at α4β1 [1] (setting [6]) were 8.00 and 8.05, respectively.
Take `CN(C)CCC(=O)N1C2CCC(CC2)C1C(=O)NC(Cc1ccc(NC(=O)c2c(Cl)cncc2Cl)cc1)C(=O)O` (centres unmarked) [Cpd 16]: the figures for the negative logarithm of the IC50 (pIC50) on human α4β7 (setting [5]) and at α4β1 [1] (setting [6]) were 6.75 and 7.64, respectively.
`O=C(Nc1ccc(CC(NC(=O)C2C3CCC(CC3)N2C(=O)CCc2ccc3c(c2)OCO3)C(=O)O)cc1)c1c(Cl)cccc1Cl` (centres unmarked) [Cpd 22]: the pIC50 is 7.46 on human α4β7 (setting [5]) and 7.35 at α4β1 [1] (setting [6]).
`O=C(O)C(Cc1ccc(OC(=O)N2CCOCC2)cc1)NC(=O)C1C2CCC(CC2)N1C(=O)CCO` (centres unmarked) [Cpd 10]: the pIC50 at human α4β7 (setting [5]) was 6.05; on α4β1 [1] (setting [6]), below 6.00.
For `COCCC(=O)N1C2CCC(CC2)C1C(=O)NC(Cc1ccc(NC(=O)c2c(Cl)cncc2Cl)cc1)C(=O)O` (centres unmarked) [Cpd 12], the values for the pIC50 on human α4β7 (setting [5]) and on α4β1 [1] (setting [6]) were 6.93 and 8.10, respectively.
Regarding `O=C(Nc1ccc(CC(NC(=O)C2C3CCC(CC3)N2C(=O)CCO)C(=O)O)cc1)c1c(Cl)cncc1Cl` (centres unmarked) [Cpd 8], the pIC50 on human α4β7 (setting [5]) was 8.22; on α4β1 [1] (setting [6]), 8.40.
For the compound `NCCC(=O)N1C2CCC(CC2)C1C(=O)NC(Cc1ccc(NC(=O)c2c(Cl)cncc2Cl)cc1)C(=O)O` (centres unmarked) [Cpd 15], the pIC50 is 7.22 at human α4β7 (setting [5]) and 7.54 on α4β1 [1] (setting [6]).
On to `O=C(Nc1ccc(CC(NC(=O)C2C3CCC(CC3)N2C(=O)CCO)C(=O)O)cc1)c1c(Cl)cccc1Cl` (centres unmarked) [Cpd 9], for which the pIC50 on human α4β7 (setting [5]) is 7.17; on α4β1 [1] (setting [6]), 6.87.
`O=C(Nc1ccc(CC(NC(=O)C2C3CCC(CC3)N2C(=O)CSc2ccncc2)C(=O)O)cc1)c1c(Cl)cncc1Cl` (centres unmarked) [Cpd 3]: the pIC50 on human α4β7 (setting [5]) and on α4β1 [1] (setting [6]) was 8.22 in each case.
As for `CS(=O)(=O)CC(=O)N1C2CCC(CC2)C1C(=O)NC(Cc1ccc(NC(=O)c2c(Cl)cncc2Cl)cc1)C(=O)O` (centres unmarked) [Cpd 5], the pIC50 on human α4β7 (setting [5]) is 7.49; on α4β1 [1] (setting [6]), 7.77.
As to `COCCC(=O)N1C2CCC(CC2)C1C(=O)NC(Cc1ccc(OC(=O)N(C)C)cc1)C(=O)O` (centres unmarked) [Cpd 14], the pIC50 against human α4β7 was 6.52; against α4β1 [1], 5.90.
Turning to `O=C(O)C(Cc1ccc(OC(=O)N2CCOCC2)cc1)NC(=O)C1C2CCC(CC2)N1C(=O)CCc1ccc2c(c1)OCO2` (centres unmarked) [Cpd 23], the negative logarithm of the IC50 (pIC50) is 6.56 at human α4β7 (setting [5]) and 6.66 on α4β1 [1] (setting [6]).
As to Phenylacetyl-Leu-Asp-Phe-D-Pro-NH2, at α4β1 [2], the pIC50 is 5.70. In addition, the “efficacy in oxazolone-induced contact hypersensitivity” value in assay [3] was “efficacy similar to the α4 antibody PS/2”. Further, in assay [4], the “efficacy in heart allograft model” value is “effective”.
For the compound `COCCC(=O)Nc1ccc(CC(NC(=O)C2C3CCC(CC3)N2C(=O)CCOC)C(=O)O)cc1` (centres unmarked) [Cpd 13], the pIC50 on human α4β7 (setting [5]) is 5.63; on α4β1 [1] (setting [6]), below 6.00.
For `O=C(Nc1ccc(CC(NC(=O)C2C3CCC(CC3)N2C(=O)CSc2ccc(F)cc2)C(=O)O)cc1)c1c(Cl)cncc1Cl` (centres unmarked) [Cpd 2], in that order: 7.70 and 8.22.
